From USRE47689E1, “Compounds for treating spinal muscular atrophy” (PTC Therapeutics, Inc., priority 2011, dated 2019)
Read-outs that look alike come from different tables or passages of the source.

Experiments:
[1] = test system: SMN2 minigene (full length SMN2 minigene mRNA containing SMN2 exon 7); assay: SMN2 minigene mRNA splicing RT-qPCR assay in cultured cells; type: cell-based, human; settings: Homo sapiens, HEK293-H, read-out: EC1.5x for production of full length SMN2 mRNA
Outline: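 HEK293H cells stably carrying the SMN2-A minigene treated 24 h at 37° C with compound (DMSO, 200× stock), then lysed. Multiplex RT-qPCR (SMN primers 0.4 μM final; 40 cycles) measures full-length exon 7-containing minigene mRNA, normalized to GAPDH and to vehicle; EC1.5x derived and binned by stars.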

Smn protein = Smn protein assay in cultured cells (SMN HTRF); type: cell-based, human; settings: 48 hours; for maximum fold (Fold) increase of Smn protein: SMA patient fibroblast cells, 7-point concentration data, fold increase relative to vehicle control (SMN HTRF); for EC1.5x (concentration giving 1.5-fold Smn protein increase): SMA Type 1 patient fibroblast cells (GM03813), 7-point concentration curve, SMN HTRF, concentration producing 1.5 times Smn protein vs DMSO vehicle control, read-out: EC1.5x for Smn protein expression
Outline: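 Lysates in RIPA with protease inhibitors are incubated overnight at room temperature with HTRF anti-SMN antibodies. EC1.5x is derived from fold increase in ΔF over vehicle.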

[2] = HEK293H cells stably transfected with SMN2-A minigene, 24 hours, 7-point concentration curve, 1.5-fold relative to vehicle-treated cells

Row | SMILES | melting point | EC (1.5-fold) [1, 2] | maximum fold (Fold) increase of Smn protein (Smn protein) | EC1.5x (concentration giving 1.5-fold Smn protein increase) (Smn protein) | EC (1.5-fold) ([1]; 24 h)
1 | Cl.O=c1oc2cc(N3CCNCC3)ccc2cc1-c1nc2c(I)cccc2o1 [Compound 67, 3-(4-iodo-1,3-benzoxazol-2-yl)-7-(piperazin-1-yl)-2H-chromen-2-one hydrochloride] | 280 to 285 °C | 0.3 to 1 µM | * (maximum fold increase of ≤1.2) |  | 
2 | Cc1ccc2nc(-c3cc4ccc(N(C)C5CCN(C)CC5)cc4oc3=O)cn2c1 [Compound 282, 3-(6-methylimidazo[1,2-a]pyridin-2-yl)-7-[methyl(1-methylpiperidin-4-yl)amino]-2H-chromen-2-one] | 181 to 184 °C |  | * (maximum fold increase of ≤1.2) |  | 1 to 3 µM
3 | C[C@@H]1CN(c2ccc3cc(-c4cccs4)c(=O)oc3c2)C[C@H](C)N1 [Compound 364, 7-[(3R,5S)-3,5-dimethylpiperazin-1-yl]-3-(thiophen-2-yl)-2H-chromen-2-one] | 150 to 152 °C |  | * (maximum fold increase of ≤1.2) |  | 1 to 3 µM
4 | CN1CCN(c2cc(F)c3cc(-c4nc5c(F)cccc5o4)c(=O)oc3c2)CC1 [Compound 366, 5-fluoro-3-(4-fluoro-1,3-benzoxazol-2-yl)-7-(4-methylpiperazin-1-yl)-2H-chromen-2-one] | 256 to 260 °C | 0.3 to 1 µM | ** (fold increase between >1.2 and ≤1.35) |  | 
5 | C[C@H]1CN(c2ccc3cc(-c4ccc(F)cc4Cl)c(=O)oc3c2)CCN1 [Compound 510, 3-(2-chloro-4-fluorophenyl)-7-[(3S)-3-methylpiperazin-1-yl]-2H-chromen-2-one] | 109 to 111 °C | 3 to 30 µM | * (maximum fold increase of ≤1.2) |  | 
6 | Cl.O=c1oc2cc(N3CCNCC3)ccc2cc1-c1nc2cc(F)ccc2o1 [Compound 19, 3-(5-fluoro-1,3-benzoxazol-2-yl)-7-(piperazin-1-yl)-2H-chromen-2-one hydrochloride] | 320 to 325 °C | 1 to 3 µM | * (maximum fold increase of ≤1.2) |  | 
7 | C[C@@H]1CN(c2ccc3cc(-c4cc5ccccc5s4)c(=O)oc3c2)CCN1 [Compound 409, 3-(1-benzothiophen-2-yl)-7-[(3R)-3-methylpiperazin-1-yl]-2H-chromen-2-one] | 264 to 266 °C | 1 to 3 µM | * (maximum fold increase of ≤1.2) |  | 
8 | CCN1CCN(c2ccc3cc(-c4cn5cccc(C)c5n4)c(=O)oc3c2)CC1 [Compound 100, 7-(4-ethylpiperazin-1-yl)-3-(8-methylimidazo[1,2-a]pyridin-2-yl)-2H-chromen-2-one] | 211 to 213 °C | 0.3 to 1 µM | ** (fold increase between >1.2 and ≤1.35) |  | 
9 | Cl.Cl.O=c1oc2cc(O[C@@H]3CCNC3)ccc2cc1-c1cn2ccsc2n1 [Compound 324, 3-(imidazo[2,1-b][1,3]thiazol-6-yl)-7-[(3R)-pyrrolidin-3-yloxy]-2H-chromen-2-one hydrochloride (1:2)] | 252 to 256 °C | 0.3 to 1 µM | *** (fold increase between >1.35 and ≤1.5) |  | 
10 | CN(CCO)Cc1ccc2cc(-c3cn4ccsc4n3)c(=O)oc2c1 [Compound 345, 7-{[(2-hydroxyethyl)(methyl)amino]methyl}-3-(imidazo[2,1-b][1,3]thiazol-6-yl)-2H-chromen-2-one] | 145 to 148 °C | 1 to 3 µM | *** (fold increase between >1.35 and ≤1.5) | 3000 to 10000 nM | 
11 | CCc1ccn2cc(-c3cc4ccc(N5CCN(C)CC5)cc4oc3=O)nc2c1 [Compound 288, 3-(7-ethylimidazo[1,2-a]pyridin-2-yl)-7-(4-methylpiperazin-1-yl)-2H-chromen-2-one] | 203 to 211 °C | 1 to 3 µM | * (maximum fold increase of ≤1.2) |  | 
12 | CN1CCN(c2ccc3cc(-c4ccsc4)c(=O)oc3c2)CC1 [Compound 320, 7-(4-methylpiperazin-1-yl)-3-(thiophen-3-yl)-2H-chromen-2-one] | 151 to 153 °C |  | * (maximum fold increase of ≤1.2) |  | 1 to 3 µM
13 | Cc1ccc2nc(-c3cc4ccc(N(C)Cc5cccnc5)cc4oc3=O)cn2c1 [Compound 221, 3-(6-methylimidazo[1,2-a]pyridin-2-yl)-7-[methyl(pyridin-3-ylmethyl)amino]-2H-chromen-2-one] | 220 to 223 °C | 1 to 3 µM | * (maximum fold increase of ≤1.2) |  | 

The next lines start with results.

Row | melting point | SMILES | EC (1.5-fold) [1, 2] | maximum fold (Fold) increase of Smn protein (Smn protein) | EC1.5x (concentration giving 1.5-fold Smn protein increase) (Smn protein) | EC (1.5-fold) ([1]; 24 h)
14 | 239 to 242 °C | Cc1cn2cc(-c3cc4ccc(N5CC[C@@H](N(C)C)C5)cc4oc3=O)nc2c(C)n1 [Compound 690, 7-[(3R)-3-(dimethylamino)pyrrolidin-1-yl]-3-(6,8-dimethylimidazo[1,2-a]pyrazin-2-yl)-2H-chromen-2-one] | 0.1 to 0.3 µM | **** (fold increase between >1.5 and ≤1.65) | 300 to 1000 nM | 
15 | 250 to 258 °C | Cc1nccn2cc(-c3cc4ccc(N5C[C@@H](C)N[C@@H](C)C5)cc4oc3=O)nc12 [Compound 552, 7-[(3R,5S)-3,5-dimethylpiperazin-1-yl]-3-(8-methylimidazo[1,2-a]pyrazin-2-yl)-2H-chromen-2-one] | < 0.1 µM | **** (fold increase between >1.5 and ≤1.65) | < 300 nM | 
16 | 201 to 206 °C | C[C@@H]1CN(c2ccc3cc(-c4cn(-c5ccccn5)cn4)c(=O)oc3c2)C[C@H](C)N1 [Cpd 433, 7-[(3R,5S)-3,5-dimethylpiperazin-1-yl]-3-[1-(pyridin-2-yl)-1H-imidazol-4-yl]-2H-chromen-2-one] | 3 to 30 µM | * (maximum fold increase of ≤1.2) |  | 
17 | 285 to 287 °C | Cc1cn2cc(-c3cc4ccc(N5CCN6C[C@H](O)C[C@H]6C5)cc4oc3=O)nc2c(C)n1 [Compound 758, 3-(6,8-dimethylimidazo[1,2-a]pyrazin-2-yl)-7-[(7R,8aS)-7-hydroxyhexahydropyrrolo[1,2-a]pyrazin-2(1H)-yl]-2H-chromen-2-one] | 0.3 to 1 µM | * (maximum fold increase of ≤1.2) |  | 
18 | 180 °C | Cc1ccn2cc(-c3cc4ccc(N5CCNC6(CCCC6)C5)cc4oc3=O)nc2c1 [Compound 596, 7-(6,9-diazaspiro[4.5]dec-9-yl)-3-(7-methylimidazo[1,2-a]pyridin-2-yl)-2H-chromen-2-one] | 0.3 to 1 µM | ** (fold increase between >1.2 and ≤1.35) |  | 
19 | 195 to 199 °C | Cc1cn2cc(-c3cc4ccc(CCCNC(CO)CO)cc4oc3=O)nc2c(C)n1 [Compound 882, 7-{3-[(1,3-dihydroxypropan-2-yl)amino]propyl}-3-(6,8-dimethylimidazo[1,2-a]pyrazin-2-yl)-2H-chromen-2-one] | < 0.1 µM | **** (fold increase between >1.5 and ≤1.65) | < 300 nM | 
20 | 184 to 186 °C | CCNCCCc1ccc2cc(-c3cn4cc(C)nc(C)c4n3)c(=O)oc2c1 [Compound 926, 3-(6,8-dimethylimidazo[1,2-a]pyrazin-2-yl)-7-[3-(ethylamino)propyl]-2H-chromen-2-one] | < 0.1 µM | **** (fold increase between >1.5 and ≤1.65) | < 300 nM | 
21 | 198 to 200 °C | Cc1cn2cc(-c3cc4ccc(C5CCN(C6COC6)CC5)cc4oc3=O)ccc2n1 [Compound 828, 3-(2-methylimidazo[1,2-a]pyridin-6-yl)-7-[1-(oxetan-3-yl)piperidin-4-yl]-2H-chromen-2-one] | 0.1 to 0.3 µM | ***** (fold increase >1.65) | 300 to 1000 nM | 
22 | 185 to 188 °C | Cc1cn2cc(-c3cc4ccc(N5CCN6C[C@H](O)C[C@H]6C5)cc4oc3=O)cc2c(C)n1 [Compound 767, 3-(1,3-dimethylpyrrolo[1,2-a]pyrazin-7-yl)-7-[(7R,8aS)-7-hydroxyhexahydropyrrolo[1,2-a]pyrazin-2(1H)-yl]-2H-chromen-2-one] | < 0.1 µM | ***** (fold increase >1.65) | < 300 nM | 
23 | 147 to 151 °C | Cc1cn2cc(-c3cc4ccc(CCCCN5CCC[C@@H]5CO)cc4oc3=O)nc2c(C)n1 [Compound 904, 3-(6,8-dimethylimidazo[1,2-a]pyrazin-2-yl)-7-{4-[(2R)-2-(hydroxymethyl)pyrrolidin-1-yl]butyl}-2H-chromen-2-one] | 0.1 to 0.3 µM | **** (fold increase between >1.5 and ≤1.65) | 300 to 1000 nM | 
